In patent US20140073694A1, “CYSTAMINE ANALOGUES FOR THE TREATMENT OF PARKINSON'S DISEASE” (UNIVERSITE LAVAL, priority 2011, published 2014):

Test system: 6-OHDA lesioned mice
Experiment: Unilateral striatal 6-OHDA mouse model, neurorescue experiment
Assay type: in vivo, C57BL/6 mice
Settings: 10 mg/kg daily for 14 days from 3 days post-lesion
Description: Young adult (9-week old, 25 grams) male C57BL/6 mice were purchased from Charles River Laboratories (Montréal, QC, Canada). Animals were housed 4 per cage under standard conditions with free access to food and water, randomized and handled under the same conditions by one investigator. All experiments were performed in accordance with the Canadian Council on Animal Care and were approved by the Institutional Committee of the Centre Hospitalier de l'Université Laval (CHUL). Throughout the experiment, the health status of all mice included in the study was closely monitored for weight loss or other signs of health-related issues. All efforts were made to minimize animal pain and discomfort.
This protocol was based on the unilateral stereotaxic intra-striatal injection of 6-hydroxydopamine (6-OHDA). Intrastriatal administration of 6-OHDA creates a progressive and retrograde degenerative changes in DA neurons of the substantia nigra (Bjorklund et al., 1997; Costantini et al., 2001). Mice were anaesthetized using isoflurane and placed onto a stereotactic frame adapted for mice. 6-OHDA was dissolved at a concentration of 2 μg/μl in 0.9% saline and 0.02% ascorbic acid and 2 μl was injected in the right striatum at a rate of 0.5 μl/min. The needle was left in place for 3 min after the injection before retraction. The injection was performed using an Hamilton syringe according to the stereotaxic co-ordinates: AP: +0.04 cm, ML: −0.18 cm, DV: −0.31 cm (corresponding to the atlas of Allan P. 2008).
To serve as controls, other mice were subjected to the same surgical procedures, but only 2 μl of solvent (0.9% saline and 0.02% ascorbic acid) was injected in the same coordinates. […]
The effects of cystamine on the 6-OHDA toxicity were studied in the following experimental groups: Group I, Sham+Saline; Group II, 6-OHDA+Saline; Group III; Sham+Cystamine; Group IV, 6-OHDA+Cystamine. In total, 40 mice (n=10 per group) were utilized for each experiment, monitored daily for weight variation, and ultimately sacrificed by perfusion 24 hrs after the last cystamine (or vehicle) injection. […]
Catecholamine quantification by HPLC, TH immunohistochemistry and in situ hybridization for Nurr1 and DAT were conducted as described in Example 1.
Levels of autoradiographic labelling were quantified by computerized densitometry. […] Optical density of the autoradiograms was translated in μCi/g of tissue using ^14C radioactivity standards (ARC 146-^14C standards, American Radiolabelled Chemicals Inc., St. Louis, Mo.). Nurr1 and DAT mRNA levels were measured in the substantia nigra compacta (SNc) using similar antero-posterior levels for all sections. […]

NCCSSCCN [cystamine, Cystamine] was tested. Which “DAT mRNA levels in the SNpc (densitometry)” value did it give?
Its value is “same pattern as observed for the TH staining”.

What about the “Nurr1 mRNA levels in the SNpc (densitometry)” value of the same compound?
The value was “same pattern as observed for the TH staining”.

What about the “striatal DA content by HPLC” value (vs control mice) of the same compound?
Its value is “significantly decreased levels of DA only in 6-OHDA mice treated with saline”.

And the “decrease in the total number of TH-positive neurons in the SNpc” value (6-OHDA+cystamine vs sham+cystamine)?
The value was 27%.
